# Test system: Vγ9Vδ2 T cells exposed to compound-loaded K562 cells
# Assay: Vγ9Vδ2 T cell interferon γ ELISA with compound-loaded K562 cells
# Type: cell-based, human
# Details: versus aryl amidate range 110-230 nM
smiles,measurement,value
"C/C(=C\CCP(=O)(OCOC(=O)c1cn(-c2ccc(F)cc2)nn1)Oc1ccccc1)CO (stereo not shown) [Compound 25b, (E)-(((5-Hydroxy-4-methylpent-3-en-1-yl)(phenoxy)phosphoryl)oxy)methyl-1-(4-fluorophenyl)-1H-1,2,3-triazole-4-carboxylate]",fold more active than aryl amidates (1 hour cytokine EC50),more than 100 fold

# Source: publication PMC11853949 (European journal of medicinal chemistry, 2025)
